Reference: US8106048B2, “Heterocyclic NF-κB inhibitors” (4SC AG, priority 2004, dated 2012)

Tested on: A549-NF-κB-SEAP reporter cells
Experiment: Inhibition of NF-κB-induced inflammation: […] NINA Instant Assay, TNF-α stimulated SEAP reporter
Assay type: cell-based
Settings: % inhibition classes
Outline: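 A549 cells carrying an NF-κB-driven SEAP reporter were pretreated with compound (0.01–100 μM) for 4.5 h, then stimulated with 2 ng/ml TNF-α for 22 h. After inactivation of endogenous phosphatases, SEAP activity was read by CSPD chemiluminescence (40 min). EC50 values were fitted from quadruplicate data points.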

Compound	Biological activity (inhibition in the NF-κB inflammation assay)
O=C(NCC1CCN(c2nc(C(=O)N3CCN(c4cccc(C(F)(F)F)c4)CC3)cs2)CC1)c1ccc(C(F)(F)F)c(F)c1 [compound 99]	+ (“+” stands for 50-80% inhibition)
CC(=O)Nc1ccc(S(=O)(=O)N2CCC(c3nc(C(=O)N4CCN(c5cccc(C(F)(F)F)c5)CC4)cs3)CC2)cc1 [compound 207]	+ (“+” stands for 50-80% inhibition)
O=C(c1csc(C2CCN(C(=O)c3ccccc3OC(F)(F)F)CC2)n1)N1CCC(n2nnc3ccccc32)CC1 [compound 111]	+ (“+” stands for 50-80% inhibition)
COc1ccccc1N1CCN(C(=O)c2csc(C3CCN(C(=O)Cc4ccc(F)cc4)CC3)n2)CC1 [compound 229]	+ (“+” stands for 50-80% inhibition)
N#CNC(=N)NC(=O)c1csc(C2CCN(C(=O)c3ccccc3OC(F)(F)F)CC2)n1 [compound 90]	+ (“+” stands for 50-80% inhibition)
O=C(c1csc(N2CCN(Cc3ccccc3)CC2)n1)N1CCN(C(c2ccccc2)c2ccccc2)CC1 [compound 71]	+++ (“+++” stands for 90-100% inhibition)
COc1ccc(N2CCC(c3nc(C(=O)N4CCN(c5cccc(C(F)(F)F)c5)CC4)cs3)CC2)cc1OC [compound 159]	+ (“+” stands for 50-80% inhibition)
O=C(c1csc(C2CCN(S(=O)(=O)c3ccccc3Br)CC2)n1)N1CCN(c2cccc(C(F)(F)F)c2)CC1 [compound 196]	+ (“+” stands for 50-80% inhibition)
O=C(c1ccc2nccnc2c1)N1CCC(c2nc(C(=O)N3CCN(c4cccc(C(F)(F)F)c4)CC3)cs2)CC1 [compound 211]	+ (“+” stands for 50-80% inhibition)
N=C(NC(=O)c1csc(C2CCN(C(=O)C(c3ccccc3)c3ccccc3)CC2)n1)Nc1nc2ccccc2[nH]1 [compound 93]	+ (“+” stands for 50-80% inhibition)
O=C(Nc1ccccc1OC(F)(F)F)N1CCC(c2nc(C(=O)N3CCN(c4cccc(C(F)(F)F)c4)CC3)cs2)CC1 [compound 79]	+++ (“+++” stands for 90-100% inhibition)
Cc1sc(C2CCN(C(=O)c3ccccc3OC(F)(F)F)CC2)nc1CC(=O)N1CCN(c2cccc(Cl)c2)CC1 [compound 128]	+++ (“+++” stands for 90-100% inhibition)
O=C(c1csc(C2CCN(C(=O)c3cc(-c4ccc(Cl)cc4)oc3C(F)(F)F)CC2)n1)N1CCN(c2cccc(C(F)(F)F)c2)CC1 [compound 218]	+++ (“+++” stands for 90-100% inhibition)
O=C(c1ccc(C(F)(F)F)c(F)c1)N1CCC(c2nc(C(=O)N3CCN(c4cccc(C(F)(F)F)c4)CC3)cs2)CC1 [compound 215]	+++ (“+++” stands for 90-100% inhibition)
N#Cc1ccc(C(=O)N2CCN(c3nc(C(=O)N4CCN(c5cccc(C(F)(F)F)c5)CC4)cs3)CC2)cc1 [compound 61]	+++ (“+++” stands for 90-100% inhibition)
O=C(c1csc(C2CCN(S(=O)(=O)c3c(Cl)nc4sccn34)CC2)n1)N1CCN(c2cccc(C(F)(F)F)c2)CC1 [compound 197]	+ (“+” stands for 50-80% inhibition)
O=C(Cc1ccc(F)cc1)N1CCC(c2nc(C(=O)N3CCc4ccccc4C3)cs2)CC1 [compound 163]	+ (“+” stands for 50-80% inhibition)
O=C(c1csc(C2CCN(S(=O)(=O)c3ccc(Br)s3)CC2)n1)N1CCN(c2cccc(C(F)(F)F)c2)CC1 [compound 203]	+ (“+” stands for 50-80% inhibition)
O=C(c1csc(C2CCN(C(=O)c3ccccc3OC(F)(F)F)CC2)n1)N1CCN(c2nc3ccccc3n2Cc2ccc(F)cc2)CC1 [compound 48]	+++ (“+++” stands for 90-100% inhibition)
O=C(c1csc(C2CCN(Cc3c(F)cccc3F)CC2)n1)N1CCN(c2cccc(C(F)(F)F)c2)CC1 [compound 168]	+ (“+” stands for 50-80% inhibition)
O=C(Nc1nc(C(=O)N2CCN(c3ccc(Cl)c(Cl)c3)CC2)cs1)c1ccccc1OC(F)(F)F [compound 41]	+++ (“+++” stands for 90-100% inhibition)
O=C(Nc1cccc(F)c1)N1CCC(c2nc(C(=O)N3CCN(c4cccc(C(F)(F)F)c4)CC3)cs2)CC1 [compound 142]	++ (“++” means 80-90%)
COc1cc(C(=O)N2CCC(c3nc(C(=O)N4CCN(c5cccc(C(F)(F)F)c5)CC4)cs3)CC2)cc(OC)c1OC [compound 225]	+ (“+” stands for 50-80% inhibition)

Compound	Biological activity (inhibition in the NF-κB inflammation assay)
COc1cc(N2CCN(C(=O)c3csc(C4CCN(C(=O)c5ccccc5OC(F)(F)F)CC4)n3)CC2)nc(OC)n1 [compound 130]	+ (“+” stands for 50-80% inhibition)
COc1ccc(OC)c(N2CCC(c3nc(C(=O)N4CCN(c5cccc(C(F)(F)F)c5)CC4)cs3)CC2)c1 [compound 116]	+ (“+” stands for 50-80% inhibition)
Cc1ccc(S(=O)(=O)N2CCC(c3nc(C(=O)N4CCN(c5cccc(C(F)(F)F)c5)CC4)cs3)CC2)cc1 [compound 204]	+ (“+” stands for 50-80% inhibition)
O=C(c1csc(C2CCN(Cc3ccc(F)cc3)CC2)n1)N1CCN(c2cccc(C(F)(F)F)c2)CC1 [compound 170]	+ (“+” stands for 50-80% inhibition)
O=C(Nc1ccccc1)N1CCC(c2nc(C(=O)N3CCN(c4cccc(C(F)(F)F)c4)CC3)cs2)CC1 [compound 134]	+ (“+” stands for 50-80% inhibition)
O=C(c1ccc(C(F)(F)F)c(F)c1)N1CCN(c2nc(C(=O)N3CCN(c4cccc(C(F)(F)F)c4)CC3)cs2)CC1 [compound 60]	+++ (“+++” stands for 90-100% inhibition)
O=C(Nc1cc(F)cc2c1OCCO2)N1CCC(c2nc(C(=O)N3CCN(c4cccc(C(F)(F)F)c4)CC3)cs2)CC1 [compound 135]	+ (“+” stands for 50-80% inhibition)
O=C(c1csc(C2CCN(C(=O)c3ccccc3OC(F)(F)F)CC2)n1)N1CCOC(c2ccccc2)C1 (stereo not shown) [compound 146]	+ (“+” stands for 50-80% inhibition)
O=C(NCC1CCN(c2nc(C(=O)N3CCN(c4cccc(C(F)(F)F)c4)CC3)cs2)CC1)c1ccccc1OC(F)(F)F [compound 101]	+ (“+” stands for 50-80% inhibition)
COc1cc(NC(=O)N2CCC(c3nc(C(=O)N4CCN(c5cccc(C(F)(F)F)c5)CC4)cs3)CC2)cc(OC)c1OC [compound 81]	++ (“++” means 80-90%)
O=C(c1csc(C2CCN(Cc3ccc(-c4ccccc4)cc3)CC2)n1)N1CCN(c2cccc(C(F)(F)F)c2)CC1 [compound 167]	+ (“+” stands for 50-80% inhibition)
O=C(c1csc(C2CCN(S(=O)(=O)c3ccc(Cl)cc3Cl)CC2)n1)N1CCN(c2cccc(C(F)(F)F)c2)CC1 [compound 200]	×
CC(C)NC(=O)N1CCC(c2nc(C(=O)N3CCN(c4cccc(C(F)(F)F)c4)CC3)cs2)CC1 [compound 78]	+ (“+” stands for 50-80% inhibition)
O=C(c1cc(C(F)(F)F)cc(C(F)(F)F)c1)N1CCN(c2nc(C(=O)N3CCN(c4cccc(C(F)(F)F)c4)CC3)cs2)CC1 [compound 59]	+ (“+” stands for 50-80% inhibition)
Cn1nc(C(C)(C)C)cc1C(=O)N1CCC(c2nc(C(=O)N3CCN(c4cccc(C(F)(F)F)c4)CC3)cs2)CC1 [compound 216]	++ (“++” means 80-90%)
O=C(c1csc(C2CCN(C(=O)c3ccccc3OC(F)(F)F)CC2)n1)N(CCc1ccccc1)Cc1ccccc1 [compound 149]	+ (“+” stands for 50-80% inhibition)
CC(C)(C)OC(=O)N1CCC(c2nc(C(=O)NC(=N)Nc3nc4ccccc4[nH]3)cs2)CC1 [compound 95]	+++ (“+++” stands for 90-100% inhibition)
COc1nc(OC)nc(N2CCN(C(=O)c3csc(C4CCN(C(=O)c5ccccc5OC(F)(F)F)CC4)n3)CC2)n1 [compound 127]	+ (“+” stands for 50-80% inhibition)
Cc1cc2nc(NC(=O)c3csc(C4CCN(C(=O)c5cc(-c6ccc(Cl)cc6)oc5C(F)(F)F)CC4)n3)[nH]c2cc1C [compound 132]	+ (“+” stands for 50-80% inhibition)
O=C(Nc1nc(C(=O)N2CCN(c3cccc(C(F)(F)F)c3)CC2)cs1)Nc1ccccc1OC(F)(F)F [compound 55]	+++ (“+++” stands for 90-100% inhibition)
O=C(Cc1ccc(F)cc1)N1CCC(c2nc(C(=O)N3CCc4ccccc43)cs2)CC1 [compound 162]	+ (“+” stands for 50-80% inhibition)
O=C(c1csc(C2CCN(Cc3cccc(OC(F)(F)F)c3)CC2)n1)N1CCN(c2cccc(C(F)(F)F)c2)CC1 [compound 115]	++ (“++” means 80-90%)

Same assay, conditions: inhibition classes

Compound	Biological activity (inhibition in the NF-κB inflammation assay)
O=C(Cc1ccc(F)cc1)N1CCC(c2nc(C(=O)N3CCN(c4ccccn4)CC3)cs2)CC1 [compound 237]	+ (“+” stands for 50-80% inhibition)
COc1cc(NC(=O)N2CCC(c3nc(C(=O)N4CCN(c5cccc(C(F)(F)F)c5)CC4)cs3)CC2)cc(OC)c1OC [compound 240]	++ (“++” means 80-90%)
O=C(Cc1ccc(F)cc1)N1CCC(c2nc(C(=O)N3CCN(c4cccc(Cl)c4)CC3)cs2)CC1 [compound 238]	+ (“+” stands for 50-80% inhibition)
COc1cc2c(cc1OC)C(C)N(C(=O)c1csc(C3CCN(C(=O)Cc4ccc(F)cc4)CC3)n1)CC2 (stereo not shown) [compound 234]	+ (“+” stands for 50-80% inhibition)
